From patent publication US10258587B2, “Branched chain fatty acids for prevention or treatment of gastrointestinal disorders” (priority 2007, dated 2019)

Columns and labels:
Bacillus megaterium = details: LL-37 mixed in a ratio of 3:1 with vernix lipids; cited from earlier work
Caco-2 cells = test: Caco-2 BCFA uptake experiment (18 h incubation, GC/MS of cell lipids); type: in vitro ADME, human; details: BCFA-treated Caco-2 cells
Description: Twenty-four hours prior to treatment with BCFA, DMEM was replaced with MEM (Minimum Essential Medium). […] Two others served as controls. Cells were incubated for 18 hours, after which media was removed and the cells were thoroughly and carefully washed three times. Cell lipids were extracted and FAME prepared for GC/MS.

## LL-37: antimicrobial vernix peptide (LLGDFFRKSKEKIGKEFKRIVQRIKDFLRNLVPRTES; Antibacterial peptide LL-37; UniProt P49913 134-170, looked up)
Bacillus megaterium
  growth of Bacillus megaterium, peptide mixed with vernix lipids: further growth inhibition

## CC(C)CCCCCCCCCCCCCCCCC(=O)O [iso-20:0, iso-eicosanoic acid]
Caco-2 cells; MAG fraction
  incorporation of BCFA into monoacylglycerols (MAG): favoring
Caco-2 cells; PL fraction
  incorporation of BCFA into phospholipids (PL): selection against
